From patent publication US20240197695A1, “COMPOUND FOR PREVENTION OR TREATMENT OF KIDNEY DISEASE” (ONCOCROSS CO.,LTD, priority 2021, published 2024)
Read-outs that look alike come from different tables or passages of the source. Marks after values point to notes of the source that are not given here.

Columns and labels:
Format in all cases: in vivo, mice (C57BL/6)
[1] = Body weights of mice in diabetic nephrosis model
Method: (§1) STZ (Sigma-aldrich, S0130, 40 mg/kg b.w., in 0.1 M citrate buffer pH 4.5) was intraperitoneally administered to 9-week-old male mice (C57BL/6) once/1 day for 5 days to perform a first disease induction. After 7 weeks of the first induction, a second induction was performed using the same method as the first induction. For 5 days of an STZ administration period for the first induction, 10% sucrose was administered as drinking water. In addition, after 14 days of the second administration, blood glucose levels were confirmed to confirm the induction rate, and the induced animals were separated into groups. Experimental substances (R)-4-{(R)-1-[7-(3,4,5-trimethoxy-phenyl)-[1,6] naphthyridin-5-yloxy]-ethyl}pyrrolidin-2-one (BI-1002494) and cromolyn (OC-101) were administered orally into the stomach at 10 mL/kg using an administration syringe (sonde) before 16:00 daily for 12 weeks at a frequency of 7 days/week at doses shown in Table 1 below, and dexamethasone was orally administered as a positive control substance.

[2] = system: diabetic nephrosis animal models; settings: for CRE, Mean / GLU, Mean / T-CHO, Mean: after observation period, fasted
Method: as §1
After the observation period for mice of each group in Example 1 was terminated, all surviving animals were fasted in the same manner as when measuring blood glucose levels, and then anesthetized by inhaling isoflurane, and blood was collected from the abdominal vena cava through laparotomy. After the blood collection was completed, the veins and arteries were cut under anesthesia and exsanguinated. The collected blood was left at room temperature for 30 minutes or more and then centrifuged at 3,000 rpm for 20 minutes. Thereafter, glucose, Blood urea nitrogen (BUN), and creatinine were analyzed using an automated blood biochemistry analyzer (Hitachi 3100, Hitachi Co. Ltd., Japan). Indoxyl sulfate (a substance that was mainly produced in the intestines to cause renal injury, and a substance that caused end-stage renal failure by advancing renal function damage in patients with renal failure during hemodialysis) was analyzed using LC MS/MS. In addition, blood insulin was analyzed according to a method represented by a commercial Mouse Insulin ELISA KIT (#AKRIN-011T, Sibayagi Co. Ltd., Japan).

[3] = system: diabetic nephrosis animal models; experiment: Histopathological change (H&E) in liver, kidney, pancreas; settings: for Kidney: Medullar apoptosis / Kidney: Medullar mineralization / Kidney: NHL / Kidney: bowman's capsule hyperplasia / Kidney: pappillary mineralization / Liver: Apoptosis / Liver: Cytoplasmic glycogen / Liver: Eosinophlic focus of cellular alteration / Liver: Mononuclear cell infiltrate / Liver: NHL / Pancrease: Apoptosis / Pancrease: NHL / Pancrease: islet degeneration / Pancrease: islet hypertrophy / Pancrease: islet, mononuclear cell infillitrate: count in group of 10 animals
Method: as §1
At the end of the observation period, the mice in each group of Example 1 were confirmed to be dead, and the liver, kidney, and pancreas were extracted and fixed with 10% neutral buffered formalin (NBF) in at least 20 times the tissue volume. The fixed tissue was sectioned to a thickness of approximately 4 mm and then produced into a paraffin block through general tissue processing and embedding processes. Thereafter, the tissue was sectioned to a thickness of 4 μm using a rotary microtome, and then H&E staining was performed, and histopathological changes were observed.

[4] = administered group (12.5, 25, 50 mg/kg)

In the case of `COc1cc(-c2cc3ncccc3c(O[C@H](C)[C@H]3CNC(=O)C3)n2)cc(OC)c1OC` [BI-1002494, (R)-4-{(R)-1-[7-(3,4,5-trimethoxy-phenyl)-[1,6]naphthyridin-5-yloxy]-ethyl}pyrrolidin-2-one], the “Body weight compared to the disease control group” value ([1]; 12.5 mg/kg administered group, after week 5 of administration) is reported as “statistically significantly increased”, the Body weight, Mean ([1]; 12.5 mg/kg/day oral, week 0) is reported as 24 g and the Body weight, Mean ([1]; 12.5 mg/kg/day oral, week 1) is reported as 23.7 g. For the same molecule, the Body weight, Mean ([1]; 12.5 mg/kg/day oral, week 2) was 23.8 g, the Body weight, Mean ([1]; 12.5 mg/kg/day oral, week 3) was 24.1 g and the Body weight, Mean ([1]; 12.5 mg/kg/day oral, week 4) was 24.3 g. The “Body weight, Mean” value ([1]; 12.5 mg/kg/day oral, week 5) was 24.2^#, the “Body weight, Mean” value ([1]; 12.5 mg/kg/day oral, week 6) was 24.4^# and the “Body weight, Mean” value ([1]; 12.5 mg/kg/day oral, week 7) was 24.3^#. The “Body weight, Mean” value ([1]; 12.5 mg/kg/day oral, week 8) was 24.2^#, the “Body weight, Mean” value ([1]; 12.5 mg/kg/day oral, week 10) was 23.8^# and the “Body weight compared to the disease control group” value ([1]; 25 mg/kg administered group, after week 8) was “statistically significantly increased”. It also gave a Body weight, Mean ([1]; 25 mg/kg/day oral, week 0) of 23.8 g, a Body weight, Mean ([1]; 25 mg/kg/day oral, week 1) of 23.5 g and a Body weight, Mean ([1]; 25 mg/kg/day oral, week 2) of 23.7 g. The Body weight, Mean ([1]; 25 mg/kg/day oral, week 3) was 23.9 g, the Body weight, Mean ([1]; 25 mg/kg/day oral, week 4) was 23.9 g and the Body weight, Mean ([1]; 25 mg/kg/day oral, week 5) was 24 g. For the same molecule, the Body weight, Mean ([1]; 25 mg/kg/day oral, week 6) was 23.9 g, the Body weight, Mean ([1]; 25 mg/kg/day oral, week 7) was 24 g and the “Body weight, Mean” value ([1]; 25 mg/kg/day oral, week 8) was 24.0^#. For the same molecule, the “Body weight, Mean” value ([1]; 25 mg/kg/day oral, week 10) was 23.7^#, the “Body weight compared to the disease control group” value ([1]; 50 mg/kg administered group, after week 8) was “statistically significantly increased” and the Body weight, Mean ([1]; 50 mg/kg/day oral, week 0) was 23.9 g. The Body weight, Mean ([1]; 50 mg/kg/day oral, week 1) was 23.6 g, the Body weight, Mean ([1]; 50 mg/kg/day oral, week 2) was 23.8 g and the Body weight, Mean ([1]; 50 mg/kg/day oral, week 3) was 23.8 g. For the same molecule, the Body weight, Mean ([1]; 50 mg/kg/day oral, week 4) was 23.8 g, the Body weight, Mean ([1]; 50 mg/kg/day oral, week 5) was 23.9 g and the Body weight, Mean ([1]; 50 mg/kg/day oral, week 6) was 23.9 g. For the same molecule, the Body weight, Mean ([1]; 50 mg/kg/day oral, week 7) was 24 g, the “Body weight, Mean” value ([1]; 50 mg/kg/day oral, week 8) was 23.9^# and the “Body weight, Mean” value ([1]; 50 mg/kg/day oral, week 10) was 23.7^#. For the same molecule, the “CRE, Mean” value ([2]; 12.5 mg/kg/day oral) was 0.1 mg/dL, the “GLU, Mean” value ([2]; 12.5 mg/kg/day oral) was 317.1^# mg/dL and the “T-CHO, Mean” value ([2]; 12.5 mg/kg/day oral) was 141.6 mg/dL. The “CRE, Mean” value ([2]; 25 mg/kg/day oral) was 0.1 mg/dL, the “GLU, Mean” value ([2]; 25 mg/kg/day oral) was 280.0^# mg/dL and the “T-CHO, Mean” value ([2]; 25 mg/kg/day oral) was 125.0 mg/dL. The “CRE, Mean” value ([2]; 50 mg/kg/day oral) was 0.1 mg/dL, the “GLU, Mean” value ([2]; 50 mg/kg/day oral) was 213.6^# mg/dL and the “T-CHO, Mean” value ([2]; 50 mg/kg/day oral) was 138.7 mg/dL. For the same molecule, the “Glucose, summary” value ([2]; after induction of diabetic renal diseases) was “decreased in a dose-dependent manner”, the “GLU compared with disease control group” value ([2]; all administered groups (12.5, 25, 50 mg/kg)) was “statistically significantly reduced, and a clear dose dependence was observed” and the “Kidney: Medullar apoptosis” value ([3]; G4, 12.5 mg/kg oral) was 3. The “Kidney: Medullar mineralization” value ([3]; G4, 12.5 mg/kg oral) was 0, the “Kidney: NHL” value ([3]; G4, 12.5 mg/kg oral) was 7 and the “Kidney: bowman's capsule hyperplasia” value ([3]; G4, 12.5 mg/kg oral) was 0. The “Kidney: pappillary mineralization” value ([3]; G4, 12.5 mg/kg oral) was 0, the “Liver: Apoptosis” value ([3]; G4, 12.5 mg/kg oral) was 2 and the “Liver: Cytoplasmic glycogen” value ([3]; G4, 12.5 mg/kg oral) was 1. The “Liver: Eosinophlic focus of cellular alteration” value (shortened to “Liver: Eosinophlic focus”) ([3]; G4, 12.5 mg/kg oral) was 0, the “Liver: Mononuclear cell infiltrate” value ([3]; G4, 12.5 mg/kg oral) was 1 and the “Liver: NHL” value ([3]; G4, 12.5 mg/kg oral) was 7. For the same molecule, the “Pancrease: Apoptosis” value ([3]; G4, 12.5 mg/kg oral) was 1, the “Pancrease: NHL” value ([3]; G4, 12.5 mg/kg oral) was 5 and the “Pancrease: islet degeneration” value ([3]; G4, 12.5 mg/kg oral) was 2. The “Pancrease: islet hypertrophy” value ([3]; G4, 12.5 mg/kg oral) was 1, the “Pancrease: islet, mononuclear cell infillitrate” value ([3]; G4, 12.5 mg/kg oral) was 1 and the “Kidney: Medullar apoptosis” value ([3]; G5, 25 mg/kg oral) was 2. For the same molecule, the “Kidney: Medullar mineralization” value ([3]; G5, 25 mg/kg oral) was 1, the “Kidney: NHL” value ([3]; G5, 25 mg/kg oral) was 7 and the “Kidney: bowman's capsule hyperplasia” value ([3]; G5, 25 mg/kg oral) was 0. For the same molecule, the “Kidney: pappillary mineralization” value ([3]; G5, 25 mg/kg oral) was 0, the “Liver: Apoptosis” value ([3]; G5, 25 mg/kg oral) was 3 and the “Liver: Cytoplasmic glycogen” value ([3]; G5, 25 mg/kg oral) was 0. The “Liver: Eosinophlic focus” value ([3]; G5, 25 mg/kg oral) was 0, the “Liver: Mononuclear cell infiltrate” value ([3]; G5, 25 mg/kg oral) was 2 and the “Liver: NHL” value ([3]; G5, 25 mg/kg oral) was 7. The “Pancrease: Apoptosis” value ([3]; G5, 25 mg/kg oral) was 0, the “Pancrease: NHL” value ([3]; G5, 25 mg/kg oral) was 8 and the “Pancrease: islet degeneration” value ([3]; G5, 25 mg/kg oral) was 1. For the same molecule, the “Pancrease: islet hypertrophy” value ([3]; G5, 25 mg/kg oral) was 1, the “Pancrease: islet, mononuclear cell infillitrate” value ([3]; G5, 25 mg/kg oral) was 0 and the “Kidney: Medullar apoptosis” value ([3]; G6/G7, 50 mg/kg oral) was 1. The “Kidney: Medullar mineralization” value ([3]; G6/G7, 50 mg/kg oral) was 2, the “Kidney: NHL” value ([3]; G6/G7, 50 mg/kg oral) was 7 and the “Kidney: bowman's capsule hyperplasia” value ([3]; G6/G7, 50 mg/kg oral) was 0. For the same molecule, the “Kidney: pappillary mineralization” value ([3]; G6/G7, 50 mg/kg oral) was 0, the “Liver: Apoptosis” value ([3]; G6/G7, 50 mg/kg oral) was 2 and the “Liver: Cytoplasmic glycogen” value ([3]; G6/G7, 50 mg/kg oral) was 0. For the same molecule, the “Liver: Eosinophlic focus” value ([3]; G6/G7, 50 mg/kg oral) was 0, the “Liver: Mononuclear cell infiltrate” value ([3]; G6/G7, 50 mg/kg oral) was 1 and the “Liver: NHL” value ([3]; G6/G7, 50 mg/kg oral) was 8. For the same molecule, the “Pancrease: Apoptosis” value ([3]; G6/G7, 50 mg/kg oral) was 0, the “Pancrease: NHL” value ([3]; G6/G7, 50 mg/kg oral) was 7 and the “Pancrease: islet degeneration” value ([3]; G6/G7, 50 mg/kg oral) was 1. For the same molecule, the “Pancrease: islet hypertrophy” value ([3]; G6/G7, 50 mg/kg oral) was 2, the “Pancrease: islet, mononuclear cell infillitrate” value ([3]; G6/G7, 50 mg/kg oral) was 0 and the “Cytoplasmic glycogen in the liver” value [3, 4] was “reduced in the liver”. The “Medullar apoptosis in the kidney” value [3, 4] was “reduced in the kidney in a dose-dependent manner”.
